Earlier results on one compound are cited in US9730971B2 (priority 2008, dated 2017).

Details in all cases: reported in Non Patent Literature 2
Data set [1] has as its system Gram-positive bacteria such as Staphylococcos aureus, Streptococcus mutans, Bacillus subtilis, and Bacillus ammoniagenes.
For data set [2], the system named is Gram-negative bacteria such as Escherichia coli, Enterobacter aerogenes, and Pseudomonas aeruginosa.
For data set [3], the system named is fungi such as Saccharomyces cerevisiae, Candida utilis, and Penichillium chrysogenum.

Turning to `CCCCCCCCCCCCCCCc1cccc(O)c1C(=O)O` [anacardic acid], the antimicrobial action entry in data set [1] was “antimicrobial action”; in data set [2], “no antimicrobial action”; in data set [3], “no antimicrobial action”.
